From patent publication US20110077263A1, “Methods and Compositions of Toll-Like Receptor (TLR) Agonists” (priority 2009, published 2011)

How the values were obtained:
DC = test: Imidazoquinoline activation assay on DC, surface markers by flow cytometry; format: cell-based, human
[1] = system: LC and LC exposed to HPV16 VLP; format: cell-based, human; settings: 5 μM 3M-002, 30 μM imiquimod, 30 μM resiquimod, 5 μM 3M-031, 24 h; for expression of surface markers (MHC class I, MHC class II, CD80, CD86) on LC exposed to HPV16 VLP: then treated; for expression of surface markers (MHC class I, MHC class II, CD80, CD86) on LC: LC not exposed to VLP
Experimental: For DC, plastic adherent cells were selected by plating 2×10^8 cells in a 175-cm^2 tissue culture flask for 2 h at 37° C. Nonadherent cells were washed away and the remaining cells were cultured for 7 days in complete medium containing 1000 U/ml rGM-CSF (Berlex) and 1000 U/ml rIL-4 (BioSource International), of which 100% was replenished on day 3 and 50% was replenished on day 6. For LC, adherent cells were cultured for 7 days in complete medium containing 1000 U/ml rGM-CSF, 1000 U/ml rIL-4, and 10 ng/ml rTGF-β1 (BioSource International), of which 100% was replenished on day 3, 50% of rGM-CSF and rIL-4 was replenished on day 6, and 100% of rTGF-β1 was replenished on days 3 and 6.
(§1) DC and LC were harvested and washed twice with PBS. […] The cells were incubated for 1 h at 37° C., mixed occasionally, and finally placed at 37° C. for 24 h in complete medium containing 1000 U/ml rGM-CSF. LC were left untreated or exposed to HPV16 VLP at a concentration of 10 μg/10^6 cells. The cells were incubated for 1 h at 37° C., mixed occasionally, and placed at 37° C. for 24 h in complete medium containing 1000 U/ml rGM-CSF. […] DC and LC were harvested, washed, and analyzed by flow cytometry for the expression and surface markers. Additionally, untreated LC and LC exposed to HPV16 VLP were also analyzed for the expression of TLR7 and TLR8.
Each population of cells was harvested after the final incubation and analyzed by flow cytometry for the expression of surface markers.

[2] = system: LC and LC exposed to HPV16 VLP; format: cell-based, human; settings: LC, and LC exposed to HPV16 VLP and then stimulated; for IP-10, MCP-1 and RANTES (CCL5) secretion: data not shown; for IL-12p70, TNF-α, IL-6, IL-8 and MIP-1β concentrations in supernatant: versus negative controls
Experimental: as §1
Supernatants were collected from LC stimulated in the imidazoquinolines activation assay and submitted to the Beckman Center for Immune Monitoring Core at the University of Southern California for cytokine and chemokine analysis. The assays were completed using Human Cytokine LINCOplex Kits (LINCO Research) and the Bio-Plex Suspension Array System (Bio-Rad).
Imidazoquinolines stimulate both an innate and an adaptive immune response. The innate immune response induced by imidazoquinolines drives the adaptive immune response into a Th1 cell-mediated response via the local cytokine and chemokine milieu generated primarily by activated macrophages and DC. Thus, Applicants wanted to determine whether selected imidazoquinolines could stimulate LC exposed to HPV16 VLP to produce a proinflammatory cytokine and chemokine profile similar to the cytokine milieu known to be generated by imidazoquinoline-activated DC. Cytokines and chemokines produced by untreated LC, LC exposed to HPV16 VLP, LC treated with each of the imidazoquinoline compounds, and LC exposed to HPV16 VLP and treated with the imidazoquinoline compounds were evaluated. Supernatant from each treatment was collected and analyzed using a human cytokine LINCOplex assay.

LC exposed to HPV16 VLP [3] = test: CCR7 expression on LC by flow cytometry; format: cell-based, human; settings: then treated
LC exposed to HPV16 VLP [4] = test: Transwell migration assay toward CCL21; format: cell-based, human; settings: then treated, 250 ng/ml CCL21, 3 h
Experimental: LC, HPV16 VLP-exposed LC, or HPV16 VLP-exposed LC treated with each of the imidazoquinolines, using the same concentrations as stated in the imidazoquinoline activation assay, to the upper chambers. The plates were incubated for 3 h at 37° C. Cells that migrated to the lower chamber were counted, and migration was calculated as the ratio of cells that migrated with/without CCL21.

[5] = system: LC exposed to HPV16 cVLP with autologous CD8+ T cells; format: cell-based, human; settings: then stimulated, versus untreated LC and LC exposed to cVLP
Experimental: Briefly, LC were left untreated or exposed to 10 μg of HPV16 cVLP for 1 h at 37° C. in PBS. Subsequently, the cells were incubated for 4 h in complete medium supplemented with 1000 U/ml rGM-CSF at 37° C. Then cells were treated with or without each of the imidazoquinolines and incubated for 20 h at 37° C. […] LC were irradiated (25 Gy) and mixed with autologous CD8^+ T cells isolated from PBL by positive selection using a MACS MulitSort CD8^+ isolation kit (Miltenyi Biotec). Day 7 and 14 re-stimulations were done with LC treated as indicated above. For this, the medium was supplemented with IL-2 at 50 U/ml at 48 and 96 h after re-stimulation. After 28 days, cells were pooled and tested for IFN-γ production by ELISPOT as a measurement of HPV16-E7-specific CD8^+ T cell responses. Briefly, 96-well multiscreen hemagglutinin plates (Millipore) were coated with 10 μg/ml anti-human IFN-γ in PBS overnight, washed with PBS/0.5% Tween 20, and blocked for 4 h with complete medium at 37° C./5% CO2. Then, 2.5×10^5 cells/well were incubated in the presence or absence of HPV16-E7 peptide aa 86-93 for 18 h at 37° C. […] Individual spots were counted after staining with 3-amino-9-ethyl-carbazole substrate (Sigma-Aldrich). Spots were counted using the video-imaging KS ELISPOT analysis system (Zeiss).

[6] = system: LC exposed to HPV16 L1L2 VLP; format: cell-based, human; settings: co-stimulatory and activation molecules, Th1-promoting cytokines, HPV-specific T cells
Experimental: LC were left untreated or exposed to HPV16 L1L2 VLP for 18 h at 37° C. […] Cell supernatants were analyzed for IL-12 p40/p70 using a Bio-plex suspension bead ELISA (BioRad, Hercules, Calif.).

TLR7 and/or TLR8 = settings: cited from earlier work
LC [7] = settings: Burns et al. 2000; Suzuki et al. 2000; cited from earlier work
LC [8] = settings: previous studies; cited from earlier work
LC [9] = settings: allogenic MLR; Burns et al. 2000; cited from earlier work
LC [10] = settings: mouse model; Suzuki et al. 2000; cited from earlier work
[11] = system: high-risk HPV-induced vulvar intraepithelium neoplasia (VIN); settings: van Seters et al. 2008; cited from earlier work
[12] = system: cervical intraepithelial neoplasia (CIN); settings: cited from earlier work
[13] = cited from earlier work

Compound	expression of surface markers (MHC class I, MHC class II, CD80, CD86) on DC (DC)	expression of surface markers (MHC class I, MHC class II, CD80, CD86) on LC exposed to HPV16 VLP [1]	expression of surface markers (MHC class I, MHC class II, CD80, CD86) on LC [1]	IP-10, MCP-1 and RANTES (CCL5) secretion [2]	IL-12p70, TNF-α, IL-6, IL-8 and MIP-1β concentrations in supernatant [2]	expression of CCR7 (LC exposed to HPV16 VLP [3])	migration toward CCL21 (LC exposed to HPV16 VLP [4])	HPV16 E7 86-93 epitope-specific CD8+ T cell response (IFN-γ ELISPOT) [5]	activation of HPV-exposed LC [6]	Agonist receptor(s) (TLR7 and/or TLR8)	phenotypic and functional activation of LC (LC [7])	transcription of cytokine genes (TNF-α, IL-6, IL-12p40 mRNA) (LC [8])	allostimulatory capacity of treated LC (T cell proliferation) (LC [9])	migration of LC (LC [10])	treatment of high-risk HPV-induced VIN [11]	regression of cervical intraepithelial neoplasia (CIN) ([12]; clinical trials)	toxicity to the cervix ([12]; in vivo)	water solubility [13]
CCOCc1nc2c(N)nc3ccccc3c2n1CC(C)(C)O [resiquimod]	induced the up-regulation of surface markers	significantly induced the up-regulation of the surface markers	significantly induced the up-regulation of surface marker	highly secreted	statistically significantly elevated	induced the up-regulation of CCR7	significantly induced the migration	initiated a statistically significant HPV16 epitope-specific response	fully activated HPV treated LC	TLR8/7	do not phenotypically but functionally activate LC	enhanced the transcription of the genes	highly increased the allostimulatory capacity of LC	–	–	–	–	–
CC(C)Cn1cnc2c(N)nc3ccccc3c21 [imiquimod]	induced the up-regulation of surface markers	moderately increased the expression of surface markers	only a minor up-regulation of surface markers	comparable amounts	comparable amounts	did not induce the expression of CCR7	did not enhance CCL21-directed migration	did not induce a significant HPV16 epitope-specific immune response	did not activate HPV-exposed LC	TLR7	–	enhanced the transcription of the genes	–	induces the migration of LC	successful in treating	has not led to regression	toxic to the cervix	–
CCCc1nc2c(N)nc3ccccc3c2s1 [3M-002]	–	–	–	–	–	–	–	–	–	TLR8	–	–	–	–	–	–	–	–
CCOCc1nc2c(N)nc3ccccc3c2[nH]1 [CL097]	–	–	–	–	–	–	–	–	–	–	–	–	–	–	–	–	–	≥ 20 mg/mL
